Assay results published in the supplement of paper PMC4862054.

How the values were obtained:
MDA-MB-468 [1] = experiment: drug sensitivity score (DSS), CellTiter-Glo (DSS (AUC-based score)); higher = stronger drug effect (viability inhibition or cytotoxicity); extreme values may be limits of the assay; conditions: incubation time: 72 h
In short: (§1)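 A drug sensitivity score was derived from the area under each fitted dose-response curve. Breast cancer cells (20 µl suspension) were seeded onto compound in 384-well plates, using 5 concentrations 10-fold apart over a compound-specific 10,000-fold range, and incubated 72 h. Readouts were CellTox Green fluorescence and then CellTiter-Glo luminescence, with every plate normalised to 0.1 % DMSO and a positive kill control.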

MCF-10A = experiment: as above; conditions: incubation time: 72 h
In short: as §1

HCC1143 = experiment: as above; conditions: incubation time: 72 h
In short: as §1

BT-549 = conditions: 72 h
In short: (§2)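 The plates used were 384-well plates holding compound at 5 concentrations in 10-fold steps across a compound-specific 10,000-fold range, into which breast cancer cell lines were seeded in 20 µl suspension. Following 72 h incubation, CellTox Green fluorescence was read at 485/520 nm, and CellTiter-Glo luminescence was read after 10 min at room temperature. Normalisation on each plate used 0.1 % DMSO and a positive kill control. Dose-response curves gave the EC50, which was censored at the top concentration.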

MDA-MB-468 [2] = conditions: 72 h
In short: as §2

MFM-223 = conditions: 72 h
In short: as §2

MDA-MB-436 = conditions: 72 h
In short: as §2

HCC1937 = conditions: 72 h
In short: as §2

HDQ-P1 = conditions: 72 h
In short: as §2

BT-474 = conditions: 72 h
In short: as §2

CAL-120 = conditions: 72 h
In short: as §2

MDA-MB-231 = conditions: 72 h
In short: as §2

CAL-85-1 = conditions: 72 h
In short: as §2

Hs578T = conditions: 72 h
In short: as §2

Structure (SMILES)	drug sensitivity score (MDA-MB-468 [1])	drug sensitivity score (MCF-10A)	drug sensitivity score (HCC1143)	EC50, CellTiter-Glo (BT-549) [nM]	EC50, CellTiter-Glo (MDA-MB-468 [2]) [nM]	also measured
CC(C)(C)NC(=O)[C@H]1CC[C@H]2[C@@H]3CC[C@H]4NC(=O)C=C[C@]4(C)[C@H]3CC[C@]12C [Finasteride]	0	0	0	–	–	–
CC(C)C[C@H](NC(=O)[C@@H](COC(C)(C)C)NC(=O)[C@H](Cc1ccc(O)cc1)NC(=O)[C@H](CO)NC(=O)[C@H](Cc1c[nH]c2ccccc12)NC(=O)[C@H](Cc1cnc[nH]1)NC(=O)[C@@H]1CCC(=O)N1)C(=O)N[C@@H](CCCNC(=N)N)C(=O)N1CCC[C@H]1C(=O)NNC(N)=O [Goserelin]	0	0	0	–	–	–
CC(C)n1cnc2c(NCCc3ccc(O)cc3)nc(-c3csc4ccccc34)nc21 [StemRegenin 1]	0.986	0	0	565	9610	EC50, CellTiter-Glo (MFM-223): 2020 nM; EC50, CellTiter-Glo (MDA-MB-436): 7630 nM; EC50, CellTiter-Glo (HCC1937): > 10000 nM; EC50, CellTiter-Glo (HDQ-P1): 4790 nM
CCn1c(C(=O)N(C2CC2)C2CC2)cc2c3c(ncn3C)c(Nc3cc(C)n(C)n3)nc21	0.0233	0	0	–	> 10000	–
Cc1nc(C(=O)NCC(=O)O)c(O)c2ccc(Oc3ccccc3)cc12 [FG-4592]	0	0	0	–	–	–
CC(O)(CS(=O)(=O)c1ccc(F)cc1)C(=O)Nc1ccc(C#N)c(C(F)(F)F)c1 (centres undefined) [Bicalutamide]	0	0	0	–	–	–
CCNC(=O)CCC/C=C\C[C@@H]1[C@@H](/C=C/[C@@H](O)CCc2ccccc2)[C@H](O)C[C@@H]1O [Bimatoprost]	0	0	0	–	–	–
C=CCN(/C=C1/C(=O)O[C@H](COC)[C@@]2(C)C1=C(O)C(=O)C1=C2[C@H](OC(C)=O)C[C@]2(C)C(=O)CC[C@@H]12)CC=C [Sonolisib]	0	0	0	–	–	–
Cn1cc(C2=C(c3cn(C4CCN(Cc5ccccn5)CC4)c4ccccc34)C(=O)NC2=O)c2ccccc21 [Enzastaurin]	0	0	0	–	–	–
Cc1cn(-c2cc(NC(=O)c3ccc(C)c(Nc4nccc(-c5cccnc5)n4)c3)cc(C(F)(F)F)c2)cn1 [Nilotinib]	0	0	0	> 10000	–	–
CC1(C)CCC(c2ccc(Cl)cc2)=C(CN2CCN(c3ccc(C(=O)NS(=O)(=O)c4ccc(N[C@H](CCN5CCOCC5)CSc5ccccc5)c(S(=O)(=O)C(F)(F)F)c4)cc3)CC2)C1 [Navitoclax]	4.81	0	0	> 10000	86.4	EC50, CellTiter-Glo (BT-474): 1680 nM; EC50, CellTiter-Glo (MFM-223): > 10000 nM; EC50, CellTiter-Glo (CAL-120): 3900 nM; EC50, CellTiter-Glo (HCC1937): > 10000 nM; EC50, CellTiter-Glo (MDA-MB-231): 774 nM; EC50, CellTiter-Glo (HDQ-P1): 392 nM
CC[C@H](CO)Nc1nc(NCc2ccccc2)c2ncn(C(C)C)c2n1 [Seliciclib]	0	0	0	–	–	–
CN(C)C(=N)NC(=N)N [Metformin]	0.63	0	0	–	> 100000	–
C/C(=C\c1csc(C)n1)[C@@H]1C[C@@H]2O[C@]2(C)CCC[C@H](C)[C@H](O)[C@@H](C)C(=O)C(C)(C)[C@@H](O)CC(=O)N1 [Ixabepilone]	13.9	0	0	38.2	31.4	EC50, CellTiter-Glo (BT-474): 808 nM; EC50, CellTiter-Glo (CAL-85-1): 660 nM
CC(C)(C)c1nc(-c2cccc(NS(=O)(=O)c3c(F)cccc3F)c2F)c(-c2ccnc(N)n2)s1 [Dabrafenib]	0	0	0	–	–	EC50, CellTiter-Glo (Hs578T): > 2500 nM; EC50, CellTiter-Glo (CAL-120): 56.3 nM
O=C(O)CNC(=O)c1c(O)c2ccccc2n(Cc2ccccc2)c1=O [IOX-2]	0	0	0	> 50000	–	–
Cc1cc(Nc2nc(N[C@@H](C)c3ncc(F)cn3)ncc2Cl)[nH]n1 [AZD1480]	0	0	0	–	–	EC50, CellTiter-Glo (MFM-223): 94.6 nM
CN[C@@H](C)C(=O)N[C@H]1CN(C(=O)CC(C)C)CC[C@H]2CC[C@@H](C(=O)NC(c3ccccc3)c3ccccc3)N2C1=O [AT-406]	4.99	0	0	5.97	563	EC50, CellTiter-Glo (BT-474): 83.8 nM; EC50, CellTiter-Glo (MDA-MB-231): 278 nM; EC50, CellTiter-Glo (CAL-85-1): 826 nM
